The record followed here is US9034862B2, “Compositions and methods for the treatment of cancer” (priority 2011, dated 2015).

Data set [1] relates to human lung carcinoma A549. As to the kind of experiment: MTT assay, A549. Format: cell-based. A general note: Tetrazolium assays rely on reduction of a dye to a coloured formazan, in cell work by metabolically active cells.
Description: (§6) Solutions of the platinum compounds were freshly prepared in sterile PBS before use and their concentrations quantitated by atomic absorption spectroscopy. Cells were seeded on a 96-well plate (1200 cells per well for cancer cells and 1800 cells per well for the normal lung fibroblasts) in 100 μL RPMI or DMEM media, and incubated for 24 h. […] The cells were then treated with 20 μL of 3-(4,5-dimethylthiazol-2-yl)-2,5-diphenyltetrazolium bromide (MTT) (5 mg/mL in PBS) and incubated for 4 h. The medium was removed, 100 μL of DMSO was added to the cells, and the absorbance of the purple formazan was recorded at 560 nm using a BioTek Synergy HT multi-detection microplate plate reader. Each condition was performed in triplicate and three independent experiments were carried out for each cell line.
(§7) Human prostate carcinoma (PC3) and human cervix carcinoma (HeLa) cells were obtained from the ATCC. The human lung carcinoma cell line A549 was kindly provided by David E. Root (Whitehead Institute for Biomedical Research). Cells were incubated at 37° C. in 5% CO2 and grown in RPMI (PC3) or DMEM (A549 and HeLa) medium supplemented with 10% fetal bovine serum and 1% penicillin/streptomycin. Cells were passaged every 3 to 4 days and restarted from the frozen stock upon reaching passage number 20.
(§8) Solutions of the platinum agents were freshly prepared in sterile PBS before use and the platinum content was quantitated by AAS. Cells were seeded on 96 well plates (1200 cells per well) in 100 μL RPMI or DMEM media\ and incubated for 24 hours. […] The cells were then treated with 20 μL of 3-(4,5-dimethylthiazol-2-yl)-2,5-diphenyltetrazolium bromide (MTT) (5 mg/mL in PBS) and incubated for 4 h. The medium was removed, 100 μL of DMSO were added to the cells, and the absorbance of the purple formazan was recorded at 570 nm using a BioTek Synergy HT multi-detection microplate plate reader. For each cell line, three independent experiments were carried out in triplicate.
Data set [2] has as its system normal lung fibroblast MRC5. The experiment in a line: MTT assay, MRC5. Format: cell-based, human. The method, then:
(§1) Human colon carcinoma HT29, human breast carcinoma MCF7, human bone sarcoma U2OS, human prostate carcinoma PC3, and human cervix carcinoma HeLa cells were obtained from the ATCC. A2780/CP70 cisplatin-resistant human ovarian cancer cells were kindly provided by Dr. Stephen B. Howell (Moores UCSD Cancer Center) and the human lung carcinoma cell lines A549 and normal lung fibroblast MRC5 by David E. Root (Whitehead Institute for Biomedical Research). Cells were incubated at 37° C. in 5% CO2 and grown in RPMI (HT29, A2780/CP70, and PC3) or DMEM (A549, MRC5, HeLa, MCF7, and U2OS) medium supplemented with 10% fetal bovine serum and 1% penicillin/streptomycin. Cells were passed every 3 to 4 days and restarted from a frozen stock upon reaching pass number 20.
(§2) Solutions of the platinum compounds were freshly prepared in sterile PBS before use and their concentrations quantitated by atomic absorption spectroscopy. […] The cells were then treated with 20 μL of 3-(4,5-dimethylthiazol-2-yl)-2,5-diphenyltetrazolium bromide (MTT) (5 mg/mL in PBS) and incubated for 4 h. The medium was removed, 100 μL of DMSO was added to the cells, and the absorbance of the purple formazan was recorded at 560 nm using a BioTek Synergy HT multi-detection microplate plate reader. Each condition was performed in triplicate and three independent experiments were carried out for each cell line.

For data set [3], the system named is Human colon carcinoma HT29. The experiment in a line: MTT assay, HT29. It counts as cell-based. The protocol: as §1, §2
For data set [4], the system named is human cervix carcinoma HeLa cells. As to the kind of experiment: MTT assay, HeLa. It counts as cell-based. As to conditions: 72-h incubation.
Description: as §6, §7, §8
In another data set the test system is human bone sarcoma U2OS. The experiment in a line: MTT assay, U2OS. Format: cell-based. The settings on record: 72-h incubation. The method, then: as §1, §2
The test system of data set [5] is human prostate carcinoma PC3. As to the kind of experiment: MTT assay, PC3. It counts as cell-based. The settings on record: Table 3, PC3 Prostate, 72-h incubation.
Description: as §6, §7, §8
For another data set, the system named is NTera2. As to the kind of experiment: MTT assay, NTera2. It counts as cell-based, human. The settings on record: Table 3, NTera2 Testis, 72-h incubation.
Data set [6] has as its system human breast carcinoma MCF7. The experiment in a line: MTT assay, MCF7. It counts as cell-based. The settings on record: Table 3, MCF7 Breast, 72-h incubation. The protocol: as §1, §2
The conditions of data set [7]: D2O at 37° C.
Description: (§9) The 1-D ^1H NMR kinetic studies were performed in duplicate as a standard time-arrayed experiment using a variable delayed list. Incremented 1-D spectra were processed in exactly the same way and signals of aromatic amine ligands from platinum compounds were integrated. The relative concentrations of the platinum compound at each time point were calculated from peak integrals. […] Reactions of platinum compounds with 5′-dGMP were performed in NMR tubes containing 2 mM of the platinum compounds and 32 mM (16 equiv) of 5′-dGMP in 10 mM PBS buffer, D2O, pH*7.4 at 37° C.
In a further data set the test system is calf thymus DNA. The experiment in a line: Ethidium bromide DNA-binding competition, Scatchard analysis. On the set-up: key: competitive (type A); non-competitive (type D); both (type B); No inhibition of ethidium binding is labeled as type C.
Data set [8] concerns GLuc expression in HT29 cells. As to the kind of experiment: Transcription assay, globally platinated pGLuc, HT29. Format: cell-based, human. The settings on record: for transcription level (normalized against unplatinated plasmid): Pt/DNA ratio of […] for phenanthriplatin. The method, then: (§3) Transfection of transcription probes into A549 and HT29 cells with the pGLuc plasmid was carried out using liposomal transfecting agents. Determination of expression levels was tested by Luciferase assays monitored by a luminometer (J. Am. Chem. Soc. 2010, 132, 7429-7435). A549 cells were plated in 96-well plates at 2,000 cells/well and HT29 cells were plated in 96-well plates at 6,000 cells/well. After 48 h incubation (at ˜30% confluence), cells were transfected with 50 ng of platinated plasmids in 25 μL Opti-MEM and 0.125 μL Lipofectamine 2000, and subsequently 50 μL of antibiotics-free DMEM supplemented with 10% FBS. After 2 h, the cells were washed with medium and 100 μL of fresh medium was added. The experiment was carried out in quadruplicate.
(§4) GLuc activity was monitored using a luminescence plate reader (Synergy 2, BioTek, Winooski, Vt., USA). A 10 μL volume of medium at different time points (12, 24, 36, 48, 60 h) was transferred into opaque white 96-well plates, and 25 μL of GLuc assay solution (10 μM colelenterazine (NanoLight Technologies, Pinetop, Ariz., USA) in 2.5 mM acidified methanol (100 mM HCl), buffer (10 mM Tris-HCl pH 7.8, 1 mM EDTA, 0.6 M NaCl)) was added by the automatic injector of the instrument.
(§5) In another embodiment, A549 or HT29 cells were transfected using the platinated transcription probes, and transcription levels were investigated by determining GLuc expression as measured by […] following addition of coelenterazine as a substrate for the exported enzyme. The emission intensities were normalized against unplatinated plasmids as a control. Transcription profiles were obtained by plotting normalized levels of GLuc expression against platination levels (Pt/plasmid ratio) at five different time points. […] An increase in D0 value at different time points represents restoration of transcription.

A further data set concerns 5′-dGMP. As to conditions: 16 equiv 5′-dGMP, 37° C., PBS pH 7.4.
For a further data set, the system named is pGLuc plasmid. The experiment in a line: Platination of pGLuc plasmid. Format: biochemical.
The conditions of data set [9]: equimolar N-AcMet, 37° C.
Description: NMR spectra were collected on a Varian 500 spectrometer equipped with a triple-resonance broadband inverse probe and a variable temperature unit. The 1-D ^1H NMR kinetic studies were performed in duplicate as a standard time-arrayed experiment using a variable delayed list. Incremented 1-D spectra were processed in exactly the same way and signals of aromatic amine ligands from platinum compounds were integrated. The relative concentrations of the platinum compound at each time point were calculated from peak integrals. […] Reactions of platinum compounds with N-AcMet were performed in NMR tubes containing 2 mM of the Pt complex and 2 mM (1 equiv) of N-AcMet in 10 mM PBS buffer, D2O, pH*7.4 at 37° C. […] Deuterated 3-(trimethylsilyl)propionic acid sodium salt (TMS-PFASS) was used as an internal standard. The pH* values are the measured pH values without correction for the effect of deuterium on the electrode.
For data set [10], the system named is GLuc expression in A549 cells. As to the kind of experiment: Transcription assay, globally platinated pGLuc, A549. Format: cell-based, human. As to conditions: for transcription level (normalized against unplatinated plasmid): Pt/DNA ratio of […] for phenanthriplatin. The protocol: as §3, §4, §5
The mark [11] stands for this setting: Table 3, A549 Lung, 72-h incubation.
Setting [12] is: Table 4, A549 human lung carcinoma, 72 h incubation.
[13] abbreviates: Table 3, HT29 Colorectal, 72-h incubation.

Description for 5′-dGMP: as §9
Description for NTera2: as §6
Excerpt for calf thymus DNA: Using this approach, it is possible to determine whether the inhibition of ethidium binding is competitive (type A), non-competitive (type D), or both (type B). No inhibition of ethidium binding is labeled as type C.
Description for pGLuc plasmid: The resulting mixtures were dialyzed (molecular weight cut-off 3.5 kDa) against ddH2O overnight at 4° C. with five changes of ddH2O. The rb values (bound Pt/nucleotide) were determined by UV/Vis and atomic absorption spectroscopy.
In one embodiment, the ratio of bound platinum per plasmid was determined by measuring the Pt concentration by atomic absorption spectroscopy and the DNA concentration by UV/Vis spectroscopy.

As for `Cc1cccnc1N.N.N.O=[N+]([O-])[O-].[Cl][Pt+]` [cis-[Pt(NH3)2 (2-amino-3-methylpyridine)-Cl]NO3], the IC50 in data set [1] (Table 5, A549, 72-h incubation) was 47.1 ± 1.4 µM; in data set [2] (Table 5, MRC5, 72-h incubation) it was 51.7 ± 7.7 µM; in data set [3] (Table 5, HT29, 72-h incubation), 72.9 ± 4.6 µM.
Turning to `N.N.O=[N+]([O-])[O-].[Cl][Pt+].c1ccc2nc3ccccc3cc2c1` [cis-[Pt(NH3)2(acridine)Cl]NO3], the IC50 in [4] (Table 5, HeLa) was 2.69 ± 0.1 µM; in data set [1] (Table 5, A549, 72-h incubation), 3.74 ± 0.01 µM; in [2] (Table 5, MRC5, 72-h incubation) it was 9.17 ± 0.47 µM; with human bone sarcoma U2OS (Table 5, U2OS), 4.42 ± 0.31 µM; in [3] (Table 5, HT29, 72-h incubation), 13.5 ± 0.7 µM.
For the molecule `O=[N+]([O-])[O-].[NH3+][Pt-2]([NH3+])([Cl])[n+]1cccc2c3ccccc3ccc21` (stereo not drawn) [cis-[Pt(NH3)2(benzo[f]quinoline)Cl]NO3], the 50% inhibitory concentration (IC50) was found to be 0.64 ± 0.01 µM in [4] (Table 5, HeLa); 0.83 ± 0.03 µM in [1] (Table 5, A549, 72-h incubation); 0.88 ± 0.01 µM with human bone sarcoma U2OS (Table 5, U2OS).
As to `N.N.O=[N+]([O-])[O-].[Cl][Pt+].c1ccc2cnccc2c1` [cis-[Pt(NH3)2(isoquinoline)Cl]NO3], the IC50 in data set [1] (Table 5, A549, 72-h incubation) was 11.5 ± 0.4 µM; in data set [2] (Table 5, MRC5, 72-h incubation), 26.4 ± 1 µM; in data set [3] (Table 5, HT29, 72-h incubation), 45.6 ± 2.7 µM.
For the molecule `O=C1[O][Pt]2([NH][C@@H]3CCCC[C@H]3[NH]2)[O]C1=O` [oxaliplatin], the IC50 in [5] worked out at 13.2 ± 4 µM; with NTera2, 1.12 ± 0.08 µM; in data set [4] (Table 3, HeLa Cervix), 11.8 ± 1.4 µM; in data set [6], 17.9 ± 2.7 µM; in [1] (setting [11]), 6.79 ± 0.26 µM; in data set [1] (setting [12]) it was 10.5 ± 0.18 µM. Moreover, the IC50 stood at 8.67 ± 0.59 µM in the data set on human bone sarcoma U2OS (Table 3, U2OS Bone) and 1.81 ± 1.15 µM in data set [3] (setting [13]).
In the case of `N.N.O=[N+]([O-])[O-].[Cl][Pt+].c1ccncc1` [pyriplatin, cis-[Pt(NH3)2(pyridine)Cl]NO3], the IC50 was found to be 47.9 ± 9.2 µM in data set [5]; 5.16 ± 0.96 µM in the data set on NTera2; 31.3 ± 2.8 µM in data set [4] (Table 3, HeLa Cervix); 31.3 ± 2.8 µM in data set [4] (Table 5, HeLa); 109 ± 10 µM in data set [6]; 52.1 ± 2.3 µM in data set [1] (setting [11]). Further, the IC50 in data set [1] (setting [12]) was found to be 52.1 ± 2.25 µM; in data set [1] (Table 5, A549, 72-h incubation), 52.1 ± 2.3 µM; in [2] (Table 4, MRC5 normal lung fibroblast, 72 h incubation), 92.1 ± 9.9 µM; in data set [2] (Table 5, MRC5, 72-h incubation), 92.1 ± 9.9 µM; with human bone sarcoma U2OS (Table 3, U2OS Bone) it was 78.9 ± 6.7 µM; with human bone sarcoma U2OS (Table 5, U2OS) it was 78.9 ± 6.7 µM. In addition, the IC50 is 144 ± 10 µM in data set [3] (setting [13]) and 144 ± 10 µM in data set [3] (Table 5, HT29, 72-h incubation). For the same molecule, the “equilibrium constant for aquation” value in data set [7] is given as “approximately 0.05”. For the same molecule, in data set [7], the “time after which aquation reaction is complete (equilibrium with aqua analogue)” value turned out to be 1 h. The “type of inhibition of ethidium binding (Scatchard)” value in the data set with calf thymus DNA (12-h incubation period) and with calf thymus DNA (1 min incubation period) was “type C” each time. For the same molecule, the “transcription level (normalized against unplatinated plasmid)” value amounted to 55.3% in data set [8] (HT29, 12 h); 75.2% in data set [8] (HT29, 60 h); 55.2% in [10] (A549, 12 h); 66.8% in [10] (A549, 60 h). In addition, the “D0 (Pt lesions per plasmid required to reduce transcription levels to 37% of control)” value in [8] (HT29, 12 h after transfection) is 35.6 Pt/plasmid; in data set [8] (HT29, 24 h after transfection) it was 40.5 Pt/plasmid; in data set [8] (HT29, 36 h after transfection), 42.9 Pt/plasmid; in data set [8] (HT29, 48 h after transfection), 44.5 Pt/plasmid; in data set [8] (HT29, 60 h after transfection), 49.3 Pt/plasmid; in data set [10] (A549, 12 h after transfection), 39.2 Pt/plasmid. The “D0 (Pt lesions per plasmid required to reduce transcription levels to 37% of control)” value came out at 58.5 Pt/plasmid in data set [10] (A549, 24 h after transfection); 68.8 Pt/plasmid in data set [10] (A549, 36 h after transfection); 85.2 Pt/plasmid in data set [10] (A549, 48 h after transfection); 89.1 Pt/plasmid in [10] (A549, 60 h after transfection). For the same molecule, the “pseudo-first order rate constant, reaction with 5′-dGMP” value with 5′-dGMP was 0.29 h⁻¹. Moreover, the Pt per plasmid in the data set with pGLuc plasmid (rf 0.0016, 16 h at 37° C.) turned out to be 13.33 Pt per plasmid; in the data set with pGLuc plasmid (rf 0.004, 16 h at 37° C.) it was 31.19 Pt per plasmid; in the data set with pGLuc plasmid (rf 0.0076, 16 h at 37° C.) it was 57.96 Pt per plasmid; with pGLuc plasmid (rf 0.015, 16 h at 37° C.) it was 117.31 Pt per plasmid. The “rb (bound Pt/nucleotide)” value with pGLuc plasmid (rf 0.0016, 16 h at 37° C.) was 0.0017; in the data set with pGLuc plasmid (rf 0.004, 16 h at 37° C.), 0.0039; in the data set on pGLuc plasmid (rf 0.0076, 16 h at 37° C.) it was 0.0073; in the data set with pGLuc plasmid (rf 0.015, 16 h at 37° C.) it was 0.0015. In data set [9], the “reaction with N-AcMet more rapid than that for phenanthriplatin” value is listed as more than 10 fold. In addition, the “second-order rate constant, reaction with N-AcMet” value in data set [9] turned out to be 0.156 M⁻¹ s⁻¹.
On to “cis-[Pt(NH3)2 (1-methylimidazole)-Cl]NO3”, for which the IC50 in data set [1] (Table 5, A549, 72-h incubation) came out at 62 ± 0.8 µM; in data set [2] (Table 5, MRC5, 72-h incubation), 40.5 ± 1.1 µM; in data set [3] (Table 5, HT29, 72-h incubation) it was 53.4 ± 8.5 µM.
For the molecule cis-[Pt(NH3)2 (2-methylpyridine)Cl]NO3, the IC50 in data set [1] (Table 5, A549, 72-h incubation) turned out to be 50.6 ± 1.7 µM; in data set [2] (Table 5, MRC5, 72-h incubation), 58.9 ± 4.2 µM; in data set [3] (Table 5, HT29, 72-h incubation) it was 63.8 ± 1.9 µM.
Regarding cis-[Pt(NH3)2(quinoline)Cl]NO3, the half-inhibitory concentration (IC50) in data set [4] (Table 5, HeLa) was 12.2 ± 0.8 µM; in data set [1] (Table 5, A549, 72-h incubation), 8.11 ± 0.68 µM; in data set [2] (Table 5, MRC5, 72-h incubation), 23.5 ± 1.6 µM; in the data set on human bone sarcoma U2OS (Table 5, U2OS) it was 23.5 ± 2.7 µM; in [3] (Table 5, HT29, 72-h incubation), 38 ± 4.5 µM.

The term IC50 denotes the point on the concentration scale where inhibition reaches its midpoint.
